Test results from publication PMC4057667, “Study on Biopharmaceutics Classification and Oral Bioavailability of a Novel Multikinase Inhibitor NCE for Cancer Therapy” (International Journal of Molecular Sciences, 2014).

Legend:
[1] = parameters: method as in ref 31 = [31]; 31. Yang Y. Fan C. Zhang J. He X. Yu Y. Fang D. He Y. Song X. Intestinal absorption characteristics and pharmacokinetics of the novel targeted small-molecular NCE in rats Chin. J. New Drugs 2013 21 25; details: rats; cited from earlier work
[2] = Biopharmaceutics Classification System (BCS) classification; details: IDR below borderline value of 1 mg·min^−1·cm^−2
Description: Targeted small-molecular inhibitors are promising antitumor candidates compared to the traditional chemotherapy drugs due to their high efficiency and low toxicity. Their common formulations are oral preparations with good compliance. The essential parameters controlling oral drug absorption are the permeability of the drug through the gastrointestinal (GI) membrane and the drug solubility/dissolution in GI milieu. Biopharmaceutics Classification System (BCS) is a modern tool to characterize drug permeability and solubility/dissolution [4, 5]. […] By using BCS system, some drug-drug interactions could be prevented and the in vivo bioavailability testing of the immediate release dosage forms of class I and III drugs could be bypassed. Up till now, there is rare systemic report about specific classification method according to BCS, especially for a novel drug candidate.
According to the Food and Drug Administration (FDA) guidance for biowaiver request of immediate-release solid oral dosage forms, a drug substance is considered as high soluble when the highest dose strength is soluble in ≤250 mL of aqueous media over the pH range of 1.0–7.5 [7]. However, the choice of different dose has a great impact on the dose/solubility ratio and then affects the classification of drugs. […]

[3] = test system: platelet-derived growth factor receptor (PDGFR); parameters: method as in PMID 21691074; details: at a concentration of 10 μM; cited from earlier work
[4] = Stability in perfusion buffers; assay type: physicochemical; details: for Detected concentration / Rate of change: perfusion buffer
Procedure: Storage conditions were investigated to guarantee the samples were stable before HPLC analysis. The stability of NCE was evaluated in the perfusion solution (pH 6.5). Four aliquots of the NCE solutions were stored at room temperature for 0, 2, 4 or 6 h, respectively. Another three were stored at 4 °C for 0, 24 or 48 h, respectively. All the samples were centrifuged at a rate of 1.3 × 10^4 rpm for 10 min and then measured by HPLC. The sample concentrations were compared.

[5] = test system: VEGF-stimulated human umbilical vein endothelial cells (HUVECs); parameters: method as in PMID 21691074; details: in vitro; cited from earlier work
[6] = Equilibrium solubility in phosphate buffers; assay type: physicochemical; details: aqueous buffer, thermodynamic from solid, n = 3, mean
Procedure: Different phosphate buffers with a pH range of 1.0–7.4 were prepared as follows. Momobasic potassium phosphate (KH2PO4, 0.2 M) was prepared by dissolving 27.22 g of KH2PO4 in water and diluting with water to 1000 mL. Sodium hydroxide (NaOH, 0.2 M) was prepared by dissolving […] of NaOH in water and diluting with water to 1000 mL. Then, we placed 50 mL of the momobasic potassium phosphate solution in a 200 mL volumetric flask, added the specified volume of the sodium hydroxide solution and added water to volume.
The equilibrium solubilities of NCE were determined in 0.1 mol/mL phosphate buffers with a pH range of 1.0–7.4. An excess amount of NCE was put into the buffer, placed in a 37 °C water bath and shaken for 3 days at a rate of 100 rpm. Samples were centrifuged at a rate of 1.3 × 10^4 rpm for 10 min and then measured by HPLC (Waters e2695 Separations Module, Milford, MA, USA). Each experiment was performed in triplicates.

[7] = 1-octanol/water partition coefficient, shake-flask method; assay type: physicochemical; details: 37 °C
Procedure: The partition coefficient (logP value) is related closely to drug’s absorption in vivo. Furthermore, it can help to get a better understanding of drug’s physicochemical properties. The 1-octanol/water partition coefficient of NCE was measured by a shake-flask method. Both the 1-octanol and aqueous buffer solution were saturated before performing the experiments. Solutions of about 3.3 mM NCE were prepared in aqueous 0.1 M HCl (pH = 1.0) solution and PBS buffer (pH = 6.8) solutions. Then, 1 mL of 1-octanol was added to 9 mL of the aqueous NCE solution in glass flasks. The mixtures were then stirred in a mechanical shaker for 6 h (37 °C). Samples were left in water baths and kept at the appropriate temperature (37 °C) for at least 72 h. After that, the concentrations in the aqueous phase and 1-octanol phase were determined by HPLC, respectively. The partition coefficients were calculated by the following equation. All the partitioning experiments were performed in at least triplicate.
(1) P1-octanol/water=lg (C1-octanol/Cwater)
where P1-octanol/water is the partition coefficient value; C1-octanol is the drug’s concentration in 1-octanol phase; Cwater is the drug’s concentration in aqueous solution.

Compound: CNC(=O)c1cc(Oc2ccc(NC(=O)c3cccc(C(F)(F)F)c3)cc2)ccn1.Cc1ccc(S(=O)(=O)O)cc1.O [NCE, 2-methylcarbamoyl-4-{4-[3-(trifluoromethyl)benzamido]phenoxy} pyridinium 4-methylbenzenesulfonate monohydrate]
- absolute oral bioavailability [1]: 44.18%
- solubility class [2]: low solubility
- inhibition rate [3]: 55%
- Detected concentration ([4]; 4 °C, 24 h): 19.16 µg/mL
- Rate of change ([4]; 4 °C, 24 h): 3.38%
- Detected concentration ([4]; 4 °C, 48 h): 18.99 µg/mL
- Rate of change ([4]; 4 °C, 48 h): 4.21%
- Detected concentration ([4]; 20 °C, 0 h): 19.83 µg/mL
- Detected concentration ([4]; 20 °C, 2 h): 19.66 µg/mL
- Rate of change ([4]; 20 °C, 2 h): 0.86%
- Detected concentration ([4]; 20 °C, 4 h): 19.49 µg/mL
- Rate of change ([4]; 20 °C, 4 h): 1.70%
- Detected concentration ([4]; 20 °C, 6 h): 19.32 µg/mL
- Rate of change ([4]; 20 °C, 6 h): 2.55%
- concentration variation rates, all samples in stability study ([4]; perfusion buffers, up to 6 h at room temperature or 48 h at 4 °C): less than 5%
- inhibition of VEGF-stimulated HUVECs proliferation [5]: more selective inhibition
- solubility at 3 days ([6]; phosphate buffer pH 1.0, 37 °C): 81.7 µg/mL
- solubility at 3 days ([6]; phosphate buffer pH 5.0, 37 °C): 8.5 µg/mL
- solubility at 3 days ([6]; phosphate buffer pH 6.8, 37 °C): 9.3 µg/mL
- solubility at 3 days ([6]; phosphate buffer pH 7.4, 37 °C): 10 µg/mL
- logP at 6 h ([7]; 1-octanol / 0.1 M HCl solution (pH = 1.0)): 3.1 ± 0.04
- logP at 6 h ([7]; 1-octanol/PBS pH 6.8, pH 6.8, 1-octanol / PBS 6.8 solution): 4.2 ± 0.07
